Results as given in patent publication US9156801B2, “2-substituted oleanolic acid derivative, method preparing for same, and application thereof” (HANGZHOU BENSHENG PHARMACEUTICAL CO., LTD., priority 2011, dated 2015).
Values after ≈ are worked out from the molar mass of the structure shown.

Key:
H9 cell line = assay: leukemia cell growth inhibition, MTT; format: cell-based; conditions: Homo sapiens; for IC50: H9, 72 h; for inhibition at 16 µg/mL: H9, 16 μg/mL compound, 72 h, read-out: IR (cell proliferation inhibition rate)
From the text: (§1) Leukemia cell lines: leukemia cell lines: K562/adr (drug-resistant, chronic myeloid leukemia, CML), NB4 (acute promyelocytic leukemia, AML), Kasumi-1 (acute myeloid leukemia M2 type, AML-M2), Jurkat (acute lymphoblastic leukemia, ALL), all of which are donated by Cancer Research Institute of Zhejiang University, China; and H9 (acute lymphoblastic leukemia, ALL), which is purchased from China Center for Type Culture Collection (CCTCC).
(§2) Obtaining 6000 well-growing leukemia cells and inoculating them into wells of a 96-well cell culture plate. The culture medium is the 1640 cell culture medium containing 10% fetal bovine serum. After adding the 2-substituted oleanolic acid derivatives of different concentrations and mixing uniformly, placing the plate in a carbon dioxide cell incubator (5% CO2) at 37° C. and incubated for 72 hours. Then the relative number of viable cells is determined by MTT method. In this experiment, cell proliferation inhibition rate in control group (not treated with any compound) is set as 0%.

Jurkat cell line = assay: leukemia cell growth inhibition, MTT; format: cell-based; conditions: Homo sapiens, 72 h; for inhibition at 16 µg/mL: 16 μg/mL compound, read-out: IR (cell proliferation inhibition rate)
From the text: as §1, §2

K562/adr cell line = assay: leukemia cell growth inhibition, MTT; format: cell-based; conditions: Homo sapiens, 72 h; for IC50: K562/Adr; for inhibition at 16 µg/mL: K562/adr, 16 μg/mL compound, read-out: IR (cell proliferation inhibition rate)
From the text: as §1, §2

Kasumi-1 cell line = assay: leukemia cell growth inhibition, MTT; format: cell-based; conditions: Homo sapiens; for inhibition at 16 µg/mL: Kasumi-1, 16 μg/mL compound, 72 h, read-out: IR (cell proliferation inhibition rate); for IC50: Kasumi-1, 72 h
From the text: as §1, §2

NB4 cell line = assay: leukemia cell growth inhibition, MTT; format: cell-based; conditions: Homo sapiens, NB-4; for inhibition at 16 µg/mL: NB4, 16 μg/mL compound, 72 h, read-out: IR (cell proliferation inhibition rate); for IC50: NB4, 72 h
From the text: as §1, §2

RPMI8226 cell line = assay: multiple myeloma cell growth inhibition, MTT; format: cell-based; conditions: Homo sapiens, RPMI-8226; for inhibition at 16 µg/mL: RPMI8226, 16 μg/mL compound, 72 h, read-out: IR (cell proliferation inhibition rate); for IC50: RPMI8226, 72 h
Procedure: Multiple myeloma cell lines: RPMI8226 (multiple myeloma), purchased from Fuxiang Bio-tech Co. Ltd., Shanghai, China.
Obtaining 6000 well-growing cells as above and inoculating them into wells of a 96-well cell culture plate. The culture medium is the 1640 cell culture medium containing 10% fetal bovine serum. After adding the 2-substituted oleanolic acid derivatives of different concentrations and mixing uniformly, placing the plate in a carbon dioxide cell incubator (5% CO2) at 37° C. and incubated for 72 hours. Then the relative number of viable cells is determined by MTT method. In this experiment, cell proliferation inhibition rate in control group (not treated with any compound) is set as 0%.

Hep G2 cell line = assay: solid tumor cell growth inhibition, MTT; format: cell-based, human; conditions: Homo sapiens; for inhibition at 16 µg/mL: HepG2, 72 h, Hep G2, 16 μg/mL compound, 72 h, read-out: IR (cell proliferation inhibition rate); for IC50: HepG2, Hep G2, 72 h
Procedure: (§3) Hep-2 (laryngeal carcinoma), A549 (human lung cancer), CaES-17 (esophageal cancer cell), PC-3 (prostate cancer), CNE (nasopharyngeal carcinoma cell), and SK-OV-3 (ovarian cancer cell), all of which are purchased from China Center For Type Culture Collection; RKO (human colon adenocarcinoma cell), MGC 803 (human gastric cancer cell), MG63 (osteosarcoma) and U87 MG (malignant glioma cell), all of which are purchased from Fuxiang Bio-tech Co. Ltd., Shanghai, China; PANC-1 (pancreatic cancer), Hep G2 (human liver cancer cell), Becap37 (human breast cancer cell), and Hela (human cervical cancer cell), all of which are donated by Cancer Research Institute of Zhejiang University, China.
(§4) Obtaining 4000 well-growing human solid tumor cells and inoculating them into wells of a 96-well cell culture plate. The culture medium is DMEM High Glucose cell culture medium containing 10% fetal bovine serum. The plate is placed in a carbon dioxide cell incubator (5% CO2) at 37° C. for 24 hours. After adding the 2-substituted oleanolic acid derivatives of different concentrations and mixing uniformly, the plate is placed in a carbon dioxide cell incubator (5% CO2) at 37° C. and incubated for 72 hours. Then the relative number of the living cells is determined by MTT method. In this experiment, the cell proliferation inhibition rate in control group (not treated with any compound) is set as 0%.

A549 cell line = assay: solid tumor cell growth inhibition, MTT; format: cell-based; conditions: Homo sapiens; for IC50: A549, 72 h; for inhibition at 16 µg/mL: A549, 16 μg/mL compound, 72 h, read-out: IR (cell proliferation inhibition rate)
Procedure: as §3, §4

Becap37 cell line = assay: solid tumor cell growth inhibition, MTT; format: cell-based; conditions: Homo sapiens; for inhibition at 16 µg/mL: Becap37, 16 μg/mL compound, 72 h, read-out: IR (cell proliferation inhibition rate); for IC50: Becap37, 72 h
Procedure: as §3, §4

CNE cell line = assay: solid tumor cell growth inhibition, MTT; format: cell-based; conditions: Homo sapiens, 72 h; for inhibition at 16 µg/mL: 16 μg/mL compound, read-out: IR (cell proliferation inhibition rate)
Procedure: as §3, §4

CaES-17 cell line = assay: solid tumor cell growth inhibition, MTT; format: cell-based; conditions: Homo sapiens, CaEs17; for inhibition at 16 µg/mL: CaES-17, 16 μg/mL compound, 72 h, read-out: IR (cell proliferation inhibition rate); for IC50: CaES-17, 72 h
Procedure: as §3, §4

Hela cell line = assay: solid tumor cell growth inhibition, MTT; format: cell-based; conditions: Homo sapiens, 72 h; for IC50: HeLa; for inhibition at 16 µg/mL: Hela, 16 μg/mL compound, read-out: IR (cell proliferation inhibition rate)
Procedure: as §3, §4

Hep-2 cell line = assay: solid tumor cell growth inhibition, MTT; format: cell-based; conditions: Homo sapiens; for IC50: HEp-2, 72 h; for inhibition at 16 µg/mL: Hep-2, 16 μg/mL compound, 72 h, read-out: IR (cell proliferation inhibition rate)
Procedure: as §3, §4

MG-63 cell line = assay: solid tumor cell growth inhibition, MTT; format: cell-based; conditions: Homo sapiens; for IC50: MG-63, 72 h; for inhibition at 16 µg/mL: MG-63, 16 μg/mL compound, 72 h, read-out: IR (cell proliferation inhibition rate)
Procedure: as §3, §4

MGC 803 cell line = assay: solid tumor cell growth inhibition, MTT; format: cell-based; conditions: Homo sapiens; for inhibition at 16 µg/mL: MGC 803, 16 μg/mL compound, 72 h, read-out: IR (cell proliferation inhibition rate); for IC50: MGC 803, 72 h
Procedure: as §3, §4

PANC-1 cell line = assay: solid tumor cell growth inhibition, MTT; format: cell-based; conditions: Homo sapiens; for IC50: PANC-1, 72 h; for inhibition at 16 µg/mL: PANC-1, 16 μg/mL compound, 72 h, read-out: IR (cell proliferation inhibition rate)
Procedure: as §3, §4

PC-3 cell line = assay: solid tumor cell growth inhibition, MTT; format: cell-based; conditions: Homo sapiens; for IC50: PC-3, 72 h; for inhibition at 16 µg/mL: PC-3, 16 μg/mL compound, 72 h, read-out: IR (cell proliferation inhibition rate)
Procedure: as §3, §4

RKO cell line = assay: solid tumor cell growth inhibition, MTT; format: cell-based; conditions: Homo sapiens, 72 h; for inhibition at 16 µg/mL: 16 μg/mL compound, read-out: IR (cell proliferation inhibition rate)
Procedure: as §3, §4

SK-OV-3 cell line = assay: solid tumor cell growth inhibition, MTT; format: cell-based; conditions: Homo sapiens; for IC50: SK-OV-3, 72 h; for inhibition at 16 µg/mL: SK-OV-3, 16 μg/mL compound, 72 h, read-out: IR (cell proliferation inhibition rate)
Procedure: as §3, §4

U87 MG cell line = assay: solid tumor cell growth inhibition, MTT; format: cell-based; conditions: Homo sapiens, U-87 MG, 72 h; for inhibition at 16 µg/mL: 16 μg/mL compound, read-out: IR (cell proliferation inhibition rate)
Procedure: as §3, §4

Compound | IC50 (H9 cell line) | inhibition at 16 µg/mL (H9 cell line) | inhibition at 16 µg/mL (Jurkat cell line) | IC50 (Jurkat cell line) | IC50 (K562/adr cell line) | inhibition at 16 µg/mL (K562/adr cell line) | inhibition at 16 µg/mL (Kasumi-1 cell line) | IC50 (Kasumi-1 cell line) | inhibition at 16 µg/mL (NB4 cell line) | IC50 (NB4 cell line) | inhibition at 16 µg/mL (RPMI8226 cell line) | IC50 (RPMI8226 cell line) | inhibition at 16 µg/mL (Hep G2 cell line) | IC50 (Hep G2 cell line) | IC50 (A549 cell line) | inhibition at 16 µg/mL (A549 cell line) | inhibition at 16 µg/mL (Becap37 cell line) | IC50 (Becap37 cell line) | inhibition at 16 µg/mL (CNE cell line) | IC50 (CNE cell line) | also measured
COC(=O)[C@]12CCC(C)(C)CC1C1=CCC3[C@@]4(C)CC(C(=O)NCCN5CCCC5)C(=O)C(C)(C)C4CC[C@@]3(C)[C@]1(C)CC2 (some centres unmarked) [BS-OA-005] | 3.16 µg/mL (≈ 5.19 µM) | 96.2% | 98.1% | 2.33 µg/mL (≈ 3.83 µM) | 1.16 µg/mL (≈ 1.91 µM) | 100% | 99.8% | 3.98 µg/mL (≈ 6.54 µM) | 100% | 2.73 µg/mL (≈ 4.48 µM) | 99.2% | 0.69 µg/mL (≈ 1.13 µM) | > 96% | 2.53 µg/mL (≈ 4.15 µM) | 2.19 µg/mL (≈ 3.6 µM) | 96.8% | 98.6% | 5.68 µg/mL (≈ 9.33 µM) | 98.6% | 3.65 µg/mL (≈ 5.99 µM) | inhibition at 16 µg/mL (CaES-17 cell line): 98.9%; IC50 (CaES-17 cell line): 3.34 µg/mL (≈ 5.49 µM); IC50 (Hela cell line): 4.05 µg/mL (≈ 6.65 µM); inhibition at 16 µg/mL (Hela cell line): 98.6%; IC50 (Hep-2 cell line): 5.09 µg/mL (≈ 8.36 µM); inhibition at 16 µg/mL (Hep-2 cell line): 99.2%; IC50 (MG-63 cell line): 2.31 µg/mL (≈ 3.79 µM); inhibition at 16 µg/mL (MG-63 cell line): 99.7%; inhibition at 16 µg/mL (MGC 803 cell line): 99.3%; IC50 (MGC 803 cell line): 2.7 µg/mL (≈ 4.43 µM); IC50 (PANC-1 cell line): 4.54 µg/mL (≈ 7.46 µM); inhibition at 16 µg/mL (PANC-1 cell line): 97.8%; IC50 (PC-3 cell line): 5.11 µg/mL (≈ 8.39 µM); inhibition at 16 µg/mL (PC-3 cell line): 99.2%; inhibition at 16 µg/mL (RKO cell line): 98.7%; IC50 (RKO cell line): 3.19 µg/mL (≈ 5.24 µM); IC50 (SK-OV-3 cell line): 4.23 µg/mL (≈ 6.95 µM); inhibition at 16 µg/mL (SK-OV-3 cell line): 98.3%; inhibition at 16 µg/mL (U87 MG cell line): 100%; IC50 (U87 MG cell line): 2.5 µg/mL (≈ 4.11 µM)
COC(=O)[C@]12CCC(C)(C)CC1C1=CCC3[C@@]4(C)CC(C(=O)NCCC(C)C)C(=O)C(C)(C)C4CC[C@@]3(C)[C@]1(C)CC2 (some centres unmarked) [BS-OA-031] | > 16 µg/mL | 31.9% | -28.5% | > 16 µg/mL | 12.1 µg/mL (≈ 20.7 µM) | 62.2% | 10% | > 16 µg/mL | -0.9% | > 16 µg/mL | 4.4% | > 16 µg/mL | 6.7% | > 16 µg/mL | > 16 µg/mL | -6.3% | -5.8% | > 16 µg/mL | 15.8% | > 16 µg/mL | inhibition at 16 µg/mL (CaES-17 cell line): -4.7%; IC50 (CaES-17 cell line): > 16 µg/mL; IC50 (Hela cell line): > 16 µg/mL; inhibition at 16 µg/mL (Hela cell line): 2.5%; IC50 (Hep-2 cell line): > 16 µg/mL; inhibition at 16 µg/mL (Hep-2 cell line): 10.5%; IC50 (MG-63 cell line): > 16 µg/mL; inhibition at 16 µg/mL (MG-63 cell line): -1.3%; inhibition at 16 µg/mL (MGC 803 cell line): 0.8%; IC50 (MGC 803 cell line): > 16 µg/mL; IC50 (PANC-1 cell line): > 16 µg/mL; inhibition at 16 µg/mL (PANC-1 cell line): -1.4%; IC50 (PC-3 cell line): > 16 µg/mL; inhibition at 16 µg/mL (PC-3 cell line): 9.8%; inhibition at 16 µg/mL (RKO cell line): -12.1%; IC50 (RKO cell line): > 16 µg/mL; IC50 (SK-OV-3 cell line): > 16 µg/mL; inhibition at 16 µg/mL (SK-OV-3 cell line): 18%; inhibition at 16 µg/mL (U87 MG cell line): 5.3%; IC50 (U87 MG cell line): > 16 µg/mL
